Assay [1] addresses T1, Bifidobacterium bifidum lactase, SEQ ID NO: 1 (G856 backbone) (Bifidobacterium bifidum, UniProt A4K5H9).
T1 construct: purified sample
Put plainly: biochemical. An excerpt: (§1) *Note regarding backbone: Some clones of our template backbone for the site saturation library (SEQ ID NO: 1) contain a G856E mutation, so all substitution variants we describe are in the backbone context of SEQ ID NO: 1 with either Gly or Glu at position 856.

For assay [2], the target named is T2, Bifidobacterium bifidum lactase of SEQ ID NO: 1, variant G856E (Bifidobacterium bifidum, UniProt A4K5H9, G888E).
T2 construct: purified sample
T2 sequence (A4K5H9 33-1336 G888E): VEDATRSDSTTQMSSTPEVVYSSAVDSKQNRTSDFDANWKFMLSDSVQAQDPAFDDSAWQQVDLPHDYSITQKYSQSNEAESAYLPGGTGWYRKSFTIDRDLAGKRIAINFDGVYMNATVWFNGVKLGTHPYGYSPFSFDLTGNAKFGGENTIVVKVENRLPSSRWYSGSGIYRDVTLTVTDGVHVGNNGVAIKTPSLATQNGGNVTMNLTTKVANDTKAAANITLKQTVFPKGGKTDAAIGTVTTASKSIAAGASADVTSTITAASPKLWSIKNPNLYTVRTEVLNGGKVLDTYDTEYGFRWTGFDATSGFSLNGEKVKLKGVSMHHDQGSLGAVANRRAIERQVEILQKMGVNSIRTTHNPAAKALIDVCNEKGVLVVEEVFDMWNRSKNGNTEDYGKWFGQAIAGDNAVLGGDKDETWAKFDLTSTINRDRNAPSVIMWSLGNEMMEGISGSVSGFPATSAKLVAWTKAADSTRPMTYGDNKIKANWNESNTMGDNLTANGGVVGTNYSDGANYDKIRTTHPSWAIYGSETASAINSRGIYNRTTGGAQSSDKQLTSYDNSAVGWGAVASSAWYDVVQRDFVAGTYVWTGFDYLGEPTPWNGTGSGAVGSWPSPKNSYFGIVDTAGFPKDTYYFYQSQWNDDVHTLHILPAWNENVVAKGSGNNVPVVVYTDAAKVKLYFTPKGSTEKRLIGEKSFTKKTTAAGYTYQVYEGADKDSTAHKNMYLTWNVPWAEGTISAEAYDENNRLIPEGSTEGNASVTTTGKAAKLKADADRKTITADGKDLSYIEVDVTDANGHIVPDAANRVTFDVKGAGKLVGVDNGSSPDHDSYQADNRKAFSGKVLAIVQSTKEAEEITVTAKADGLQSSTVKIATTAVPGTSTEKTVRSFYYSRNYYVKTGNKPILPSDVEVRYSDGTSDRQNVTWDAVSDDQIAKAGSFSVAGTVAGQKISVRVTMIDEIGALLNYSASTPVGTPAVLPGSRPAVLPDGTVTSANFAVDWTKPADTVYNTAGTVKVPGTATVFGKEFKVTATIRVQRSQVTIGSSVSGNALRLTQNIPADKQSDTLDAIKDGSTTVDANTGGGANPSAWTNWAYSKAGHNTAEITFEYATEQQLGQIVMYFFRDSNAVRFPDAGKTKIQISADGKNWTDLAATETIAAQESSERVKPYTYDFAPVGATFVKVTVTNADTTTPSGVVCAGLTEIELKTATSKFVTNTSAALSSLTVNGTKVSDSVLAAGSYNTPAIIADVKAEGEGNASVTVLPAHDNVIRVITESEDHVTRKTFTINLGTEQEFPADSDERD
Put plainly: biochemical.
Excerpt: as §1

For assay [3], the system named is Bifidobacterium bifidum lactase of SEQ ID NO: 1, variant G856E. Put plainly: biochemical. The settings on record: pH 6.5; E856 relative to G856.
Excerpt: as §1

Assay [4] concerns the target Bifidobacterium bifidum lactase (SEQ ID NO: 1) variant V1F (Bifidobacterium bifidum, UniProt A4K5H9, V33F). The assay is classed as biochemical. The settings on record: D-(+)-Galactose 80 mM, ONPG 10.66 mM, pH 6.0, 30 min at 23° C., ratio of activity with/without galactose relative to wild type SEQ ID NO: 1 (IF=1.0), above 1 = decreased galactose inhibition. The procedure:
(§2) Stop solution is added (Na2CO3, 10% w/v in H2O), and the absorbance at 405 nm is recorded. “Abs405 Galactose sample” is the absorbance for the lactase grown in assay solution, “Abs405 Galactose Blank” is the absorbance for non-inoculated assay solution, “Abs405 Reference sample” is the absorbance for the lactase grown in reference solution, and “Abs405 Reference Blank” is the absorbance for non-inoculated reference solution.

For assay [5], the target named is Bifidobacterium bifidum lactase (SEQ ID NO: 1) variant V1D (Bifidobacterium bifidum, UniProt A4K5H9, V33D). The assay is classed as biochemical. The note with it: D-(+)-Galactose 80 mM, ONPG 10.66 mM, pH 6.0, 30 min at 23° C., ratio of activity with/without galactose relative to wild type SEQ ID NO: 1 (IF=1.0), above 1 = decreased galactose inhibition. The procedure: as §2

The target of assay [6] is Bifidobacterium bifidum lactase (SEQ ID NO: 1) variant E2G (Bifidobacterium bifidum, UniProt A4K5H9, E34G). The assay is classed as biochemical. The note with it: D-(+)-Galactose 80 mM, ONPG 10.66 mM, pH 6.0, 30 min at 23° C., ratio of activity with/without galactose relative to wild type SEQ ID NO: 1 (IF=1.0), above 1 = decreased galactose inhibition. The procedure:
as §2

In assay [7] the target is Bifidobacterium bifidum lactase (SEQ ID NO: 1) variant V1K (Bifidobacterium bifidum, UniProt A4K5H9, V33K). It counts as biochemical. The settings on record: D-(+)-Galactose 80 mM, ONPG 10.66 mM, pH 6.0, 30 min at 23° C., ratio of activity with/without galactose relative to wild type SEQ ID NO: 1 (IF=1.0), above 1 = decreased galactose inhibition. The procedure: as §2
The target in assay [8] is Bifidobacterium bifidum lactase (SEQ ID NO: 1) variant V1R (Bifidobacterium bifidum, UniProt A4K5H9, V33R). It counts as biochemical. The settings on record: D-(+)-Galactose 80 mM, ONPG 10.66 mM, pH 6.0, 30 min at 23° C., ratio of activity with/without galactose relative to wild type SEQ ID NO: 1 (IF=1.0), above 1 = decreased galactose inhibition. The procedure: as §2
For assay [9], the target named is Bifidobacterium bifidum lactase, parent, SEQ ID NO: 1 (Bifidobacterium bifidum, UniProt A4K5H9). Kind of assay: galactose inhibition assay (GI-IF), ONPG hydrolysis with and without D-(+)-Galactose (80 mM), Abs405. It counts as biochemical. The note with it: ONPG 10.66 mM, MES 100 mM, pH 6.0, 30 min at 23° C., normalized reference. The procedure:
as §2

Assay [10] concerns Bifidobacterium bifidum lactase of SEQ ID NO: 1, variant G856E. Put plainly: Km at pH 6.5, backbone with Glu at position 856 (purified samples). The assay is classed as biochemical. The settings on record: E856 relative to G856.
Excerpt: as §1

Molecules are shown by their SMILES.

In general, Ki refers to the dissociation constant of the complex between target and ligand, obtained from inhibition or displacement. Read a low Ki as higher affinity.

Bifidobacterium bifidum lactase (SEQ ID NO: 1) variant V1F, sequence (A4K5H9 entry or part of it V33F): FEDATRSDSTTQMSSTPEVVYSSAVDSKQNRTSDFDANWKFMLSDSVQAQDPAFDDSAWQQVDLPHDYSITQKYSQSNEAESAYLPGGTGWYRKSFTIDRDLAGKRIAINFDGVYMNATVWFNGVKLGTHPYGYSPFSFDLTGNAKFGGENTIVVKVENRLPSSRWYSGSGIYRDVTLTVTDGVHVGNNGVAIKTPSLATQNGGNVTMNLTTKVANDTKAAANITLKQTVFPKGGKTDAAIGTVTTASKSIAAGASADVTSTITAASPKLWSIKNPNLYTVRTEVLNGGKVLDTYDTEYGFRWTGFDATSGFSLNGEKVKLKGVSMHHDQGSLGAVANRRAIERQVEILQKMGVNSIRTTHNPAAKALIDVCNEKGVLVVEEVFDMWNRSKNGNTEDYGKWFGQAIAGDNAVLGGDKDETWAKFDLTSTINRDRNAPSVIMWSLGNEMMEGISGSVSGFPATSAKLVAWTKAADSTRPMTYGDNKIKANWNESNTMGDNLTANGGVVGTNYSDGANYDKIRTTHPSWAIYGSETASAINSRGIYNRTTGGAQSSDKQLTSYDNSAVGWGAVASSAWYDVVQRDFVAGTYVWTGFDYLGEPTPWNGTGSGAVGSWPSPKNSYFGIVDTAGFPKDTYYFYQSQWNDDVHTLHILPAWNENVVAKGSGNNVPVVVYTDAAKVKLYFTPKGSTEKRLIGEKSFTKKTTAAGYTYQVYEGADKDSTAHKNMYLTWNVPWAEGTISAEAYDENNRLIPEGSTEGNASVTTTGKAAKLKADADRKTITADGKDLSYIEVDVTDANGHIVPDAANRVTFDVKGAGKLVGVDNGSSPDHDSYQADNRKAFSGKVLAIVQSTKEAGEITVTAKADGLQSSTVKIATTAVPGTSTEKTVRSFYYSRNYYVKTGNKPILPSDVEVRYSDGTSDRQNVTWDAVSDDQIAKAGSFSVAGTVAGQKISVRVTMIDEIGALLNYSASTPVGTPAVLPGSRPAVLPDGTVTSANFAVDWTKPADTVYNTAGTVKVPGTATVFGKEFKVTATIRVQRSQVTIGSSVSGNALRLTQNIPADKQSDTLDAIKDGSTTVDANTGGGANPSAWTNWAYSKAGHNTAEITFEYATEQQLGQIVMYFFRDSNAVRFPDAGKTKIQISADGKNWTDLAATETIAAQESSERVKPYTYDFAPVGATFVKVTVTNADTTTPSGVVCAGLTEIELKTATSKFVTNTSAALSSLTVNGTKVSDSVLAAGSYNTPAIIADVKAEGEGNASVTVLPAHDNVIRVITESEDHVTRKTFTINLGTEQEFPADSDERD
Bifidobacterium bifidum lactase (SEQ ID NO: 1) variant V1K, sequence (A4K5H9 entry or part of it V33K): as the sequence (A4K5H9 entry or part of it V33F) above, with F1K counted along it
Bifidobacterium bifidum lactase, parent, SEQ ID NO: 1, sequence (A4K5H9 entry or part of it): as the sequence (A4K5H9 entry or part of it V33F) above, with F1V counted along it
T1 sequence (A4K5H9 entry or part of it): as the sequence (A4K5H9 entry or part of it V33F) above, with F1V counted along it
Bifidobacterium bifidum lactase (SEQ ID NO: 1) variant E2G, sequence (A4K5H9 entry or part of it E34G): as the sequence (A4K5H9 entry or part of it V33F) above, with F1V, E2G counted along it
Bifidobacterium bifidum lactase (SEQ ID NO: 1) variant V1D, sequence (A4K5H9 entry or part of it V33D): as the sequence (A4K5H9 entry or part of it V33F) above, with F1D counted along it
Bifidobacterium bifidum lactase (SEQ ID NO: 1) variant V1R, sequence (A4K5H9 entry or part of it V33R): as the sequence (A4K5H9 entry or part of it V33F) above, with F1R counted along it

Take `OC[C@H]1OC(O)[C@H](O)[C@@H](O)[C@H]1O` (stereo partly drawn) [galactose, D-(+)-Galactose]: the Ki in assay [1] was 41.5 mM; in assay [2] it was 40.6 mM. For the same molecule, in assay [3], the “IF (Ki galactose inhibition, E856 vs. G856)” value is 0.98.
With `OC[C@H]1OC(O)[C@H](O)[C@@H](O)[C@H]1O` (stereo partly drawn) [D-(+)-Galactose], the “GI-IF (galactose inhibition assay improvement factor)” value in assay [4] was 1.25; in assay [5], 1.23; in [6] it was 1.17; in assay [7], 1.11; in [8] it was 1.12. Moreover, in assay [9], the “galactose inhibition improvement factor (GI-IF)” value amounted to 1.0.
Regarding `OC[C@H]1O[C@@H](O[C@H]2[C@H](O)[C@@H](O)C(O)O[C@@H]2CO)[C@H](O)[C@@H](O)[C@H]1O` (stereo partly shown) [lactose], the “IF (Km, E856 vs. G856)” value in assay [10] was 0.98.

For the origin of these results see patent publication US12359182B2, “Polypeptide variants” (Novozymes A/S, priority 2020, dated 2025).
